Laboratory results reported in the OligoGym collection.
Several values for one entry are separate records, joined by “and”; a condition that tells them apart may be missing. Equal values may be shown once. After the bases stand the sugars from the 5' end (letter, count) and the backbone: PS all phosphorothioate, else s phosphorothioate and o phosphodiester by linkage. Methylation of C is not given here. k = constrained ethyl (cEt); d = 2'-deoxy (DNA)

The sequences below were run against MALAT1. Conditions: ASO, A431, 0.005 µM.

| Sequence | target mRNA inhibition |
| --- | --- |
| TAGTGGTTCCCAATCC (sugars k3 d10 k3, PS) | 14% |
| TAGTTCAACCCACCAA (sugars k3 d10 k3, PS) | -14% |
| TAGTTGTATTAATCTC (sugars k3 d10 k3, PS) | 38% |
| TAGTTTACCACCTTTT (sugars k3 d10 k3, PS) | 15% |
| TATGGAACTTGAATGC (sugars k3 d10 k3, PS) | 24% |
| TATTCCCCAATGGAGG (sugars k3 d10 k3, PS) | 17% |
| TATTCTTTTCTTCGCC (sugars k3 d10 k3, PS) | 49% |
| TCAACTGGGAATACTC (sugars k3 d10 k3, PS) | 17% |
| TCAAGGTCTTTTAATC (sugars k3 d10 k3, PS) | 41% |
| TCAATGCCTACCGCAC (sugars k3 d10 k3, PS) | 3% |
| TCACAAAACCCCCGGA (sugars k3 d10 k3, PS) | 16% |
| TCACCAAGGAGCTGTT (sugars k3 d10 k3, PS) | 12% |
| TCAGGCGAGCTGAGGC (sugars k3 d10 k3, PS) | 7% |
| TCAGGGTGAGGAAGTA (sugars k3 d10 k3, PS) | 50% |
| TCATACACTCACTAGA (sugars k3 d10 k3, PS) | -22% |
| TCATACTGCCAGGCTG (sugars k3 d10 k3, PS) | 29% |
| TCATATTTTAAACGGG (sugars k3 d10 k3, PS) | 23% |
| TCATCAAACACCTCAC (sugars k3 d10 k3, PS) | -8% |
| TCATCAAACACTGGTT (sugars k3 d10 k3, PS) | 36% |

| Sequence | target mRNA inhibition |
| --- | --- |
| TCATCTCAACCTCCGT (sugars k3 d10 k3, PS) | 57% and 49% |
| TCCAAAAGAGAACCAC (sugars k3 d10 k3, PS) | 21% |
| TCCAAGCTACTGGCTG (sugars k3 d10 k3, PS) | 20% |
| TCCAATGGACATCTCT (sugars k3 d10 k3, PS) | 25% |
| TCCAGGATTAATGTAG (sugars k3 d10 k3, PS) | 48% |
| TCCATTACGCAACTGA (sugars k3 d10 k3, PS) | 9% |
| TCCCACCCAGCATTAC (sugars k3 d10 k3, PS) | 27% |
| TCCCTATATAAGGTCA (sugars k3 d10 k3, PS) | 5% |
| TCCGCCGCCTCTTAAA (sugars k3 d10 k3, PS) | 26% |
| TCCGCTAAGATGCTAG (sugars k3 d10 k3, PS) | 15% |
| TCCGCTCAAATCCTGA (sugars k3 d10 k3, PS) | 26% |
| TCCGTCATGTTTTAGA (sugars k3 d10 k3, PS) | 50% and 48% |
| TCCGTTACGAAAGTCC (sugars k3 d10 k3, PS) | 64% and 59% and 50% |
| TCCTAGCTTCATCAAA (sugars k3 d10 k3, PS) | 7% |
| TCCTCAAGCTCCGCCT (sugars k3 d10 k3, PS) | 23% |
| TCCTGCATGTAAGAAT (sugars k3 d10 k3, PS) | 15% |
| TCCTTCACCAAATCGC (sugars k3 d10 k3, PS) | 36% |
| TCGCACTGGCTCCTGG (sugars k3 d10 k3, PS) | 42% |
| TCGCCATGGAAAGCGA (sugars k3 d10 k3, PS) | 15% |

| Sequence | target mRNA inhibition |
| --- | --- |
| TCGCTTTTATTCTGCT (sugars k3 d10 k3, PS) | 22% |
| TCTAATCACTGTCAAT (sugars k3 d10 k3, PS) | 32% |
| TCTACCGTTTTTCAGC (sugars k3 d10 k3, PS) | 26% |
| TCTAGACAGACCTAAG (sugars k3 d10 k3, PS) | -6% |
| TCTATTGCCATGTGCC (sugars k3 d10 k3, PS) | 41% |
| TCTCGGGCTGCAGGCT (sugars k3 d10 k3, PS) | 20% |
| TCTCTAACCCAGTTTG (sugars k3 d10 k3, PS) | 16% |
| TCTGAAGAATACCATC (sugars k3 d10 k3, PS) | 15% |
| TCTGATCATAATCTCC (sugars k3 d10 k3, PS) | 39% |
| TCTGGAAAAGCTAGGG (sugars k3 d10 k3, PS) | -21% |
| TCTGTGCTAGATCAAA (sugars k3 d10 k3, PS) | 61% |
| TCTTCTAAATTGGTTC (sugars k3 d10 k3, PS) | 49% |
| TGAAGAATACCATCTG (sugars k3 d10 k3, PS) | 30% |
| TGAAGGATGAAATGCC (sugars k3 d10 k3, PS) | 29% |
| TGACACTTCTCTTGAC (sugars k3 d10 k3, PS) | 30% |
| TGACCTTAGGATAATA (sugars k3 d10 k3, PS) | 62% |
| TGAGTGAAGTGTACTA (sugars k3 d10 k3, PS) | 42% |
| TGATAACGAAGAGATA (sugars k3 d10 k3, PS) | 15% |
| TGATAGTTCAGGGCTT (sugars k3 d10 k3, PS) | 9% |
